Laboratory results reported in article PMC9686139, “Furanoditerpenes from Spongia (Spongia) tubulifera Display Mitochondrial-Mediated Neuroprotective Effects by Targeting Cyclophilin D” (ACS Chemical Neuroscience, 2022).

How the values were obtained:
[1] = system: SH-SY5Y cells; experiment: ROS intracellular levels, carboxy-H2DCFDA; format: cell-based, human; settings: for effect on ROS content: cotreatment with 150 μM H2O2, 6 h
Procedure: Next, the capacity of S. tubulifera metabolites to decrease ROS intracellular levels was evaluated (Figure 4). […] Regarding the oxidative stress model, H2O2 augmented the levels of oxidant molecules up to 125.1 ± 2.4% (p < 0.01) and the known antioxidant Vit E, used as a positive control, induced a reduction in ROS release of 24% with respect to cells treated only with H2O2 (p < 0.05).
Figure 4 ROS intracellular levels after treatment with compounds. Furanoditerpenes were added for 6 h in the absence and presence of 150 μM H2O2. Then, the ROS content was measured with the fluorescent dye 5-(and-6)-carboxy-2′,7′-dichlorodihydrofluorescein diacetate (carboxy-H2DCFDA). Results from (a) 1, (b) 2, (c) 3, (d) 4, and (e) 5. Vitamin E (Vit E) at 25 μM was used as a positive control. Data expressed as the percentage of untreated control cells. Mean ± SEM of three experiments performed in triplicate. Statistical differences determined by one-way ANOVA test followed by Dunnett’s post hoc test. ^##p < 0.01 compared to control cells. *p < 0.05, **p < 0.01, and ***p < 0.01 compared to H2O2 control.
(§1) For these experiments, cells were seeded in 384-well plates and treated as described above. All of the assays were carried out as previously described.[15]
The fluorescent dye 5-(and-6)-carboxy-2′,7′-dichlorodihydrofluorescein diacetate (carboxy-H2DCFDA) was used to evaluate ROS levels. After treatment with compounds and H2O2, cells were washed twice with serum-free medium. Next, cells were loaded with 20 μM carboxy-H2DCFDA dissolved in serum-free medium, and the plate was incubated for 1 h at 37 °C and 300 rpm. Then, 100 μL of PBS were added to each well for 30 min at 37 °C and 300 rpm. After this incubation, the fluorescence was read at […].

[2] = system: SH-SY5Y cells; experiment: GSH content, Thiol Tracker Violet; format: cell-based, human
Procedure: To confirm the antioxidant properties of S. tubulifera compounds, the levels of the most important nonenzymatic antioxidant of cells, glutathione (GSH), were assessed. […] Regarding diterpene 2, an increase in the nonenzymatic antioxidant was observed when cells were cotreated with H2O2 and this compound at 0.001 and 1 μM (p < 0.05) (Figure 5b). No effects were found after the addition of 3 (Figure 5c), but 4 and 5 presented interesting results (Figure 5d,e).
Figure 5 Effect of S. tubulifera metabolites in the GSH content of human neuroblastoma cells. SH-SY5Y cells were treated with compounds for 6 h with and without 150 μM H2O2. GSH levels were monitored with Thiol Tracker Violet dye. (a) Compound 1, (b) compound 2, (c) compound 3, (d) compound 4, and (e) compound 5 results. Vitamin E (Vit E) at 25 μM was used as a positive control. Mean ± SEM of three experiments performed in triplicate. Data presented as the percentage of untreated control cells and compared by one-way ANOVA and Dunnett’s tests. ^##p < 0.01 compared to control cells. *p < 0.05 compared to cells treated with H2O2 alone.
as §1
Thiol Tracker Violet was used to measure intracellular GSH levels, following the manufacturer’s instructions. Briefly, human neuroblastoma cells were rinsed twice with PBS and the fluorescence dye at 10 μM was added. The plate was incubated for 30 min at 37 °C and 300 rpm, and the fluorescence was measured at 404 nm excitation and 526 nm emission in a plate reader. All experiments were performed three independent times in triplicate.

[3] = system: CypD; experiment: CypD expression by Western blot; settings: compound 0.001 μM + 150 μM H2O2, 6 h; % of H2O2 control cells
From the text: (b) CypD expression after treatment with S. tubulifera metabolites. (c) Effect of compounds on the CypD expression under oxidative stress conditions. […] Protein band expression was normalized by actin levels. Results are mean ± SEM of three replicates carried out in duplicate. Data expressed as the percentage of untreated control cells and H2O2 control. Values compared by one-way ANOVA and Dunnett’s tests. ^#p < 0.05 and ^##p < 0.01 compared to control cells. *p < 0.05 and **p < 0.01 compared to cells treated with H2O2 alone.
In this context, the expression of this protein was analyzed after treatment with compounds. CypD cytosolic levels were evaluated after treatment with 1–5 alone for 6 h and after the coaddition of diterpenes and H2O2 to get a complete insight into diterpene mitochondria-related effects.
SH-SY5Y cells were cultured in 12-well plates at 1 × 10^6 cells per well and allowed to settle down for 24 h.
Cells were washed twice with ice-cold PBS, and a hypotonic solution was added (20 mM tris–HCl pH 7.4, 10 mM NaCl, and 3 mM MgCl2, containing phosphatase and protease inhibitor cocktail). Cells were incubated for 15 min on ice and centrifuged at 3000 rpm and 4 °C for 15 min. The supernatant was collected as the cytosolic fraction, and protein concentration was quantified with the Direct Detect instrument (Merck Millipore, Darmstadt, Germany).[15]
Electrophoresis was resolved in 4–20% sodium dodecyl sulfate polyacrylamide gels (Biorad, Hercules, CA), containing 15 μg of cytosolic protein from each sample. The Trans-Blot semidry transfer cell (Biorad) was used to transfer proteins to poly(vinylidene difluoride) (PVDF) membranes (Merck Millipore). Snap i.d. system (Merck Millipore) was used for membrane blocking and antibody incubation. […] Immunoreactive bands were detected with Supersignal West Pico Luminiscent Substrate and Supersignal West Femto Maximum Sensitivity Substrate. Diversity GeneSnap system and software (Syngene, Cambridge, U.K.) were used for protein band detection. Experiments were performed three independent times in duplicate.

[4] = system: CypC; experiment: CypC expression by Western blot; settings: 0.001 μM + 150 μM H2O2, 6 h; % of H2O2 control
Procedure: (§2) Human neuroblastoma cells were treated with compounds at 0.001 μM for 6 h, and Cyps expression was determined by Western blot (Figure 10). […] SH-SY5Y cells were treated with 1–5 at 0.001 μM for 6 h, and their effects on Cyps expression were determined by Western blot. […] Protein band expression was normalized by actin levels. Results expressed as the percentage of untreated control cells or as the percentage of H2O2 control. Mean ± SEM of three replicates carried out in duplicate. Statistical differences determined by one-way ANOVA and Dunnett’s tests. ^#p < 0.05 and ^##p < 0.01 compared to control cells. *p < 0.05, **p < 0.01, and ***p < 0.01 compared to cells treated with H2O2 alone. […]
(§3) Cells were washed twice with ice-cold PBS, and a hypotonic solution was added (20 mM tris–HCl pH 7.4, 10 mM NaCl, and 3 mM MgCl2, containing phosphatase and protease inhibitor cocktail). […] The supernatant was collected as the cytosolic fraction, and protein concentration was quantified with the Direct Detect instrument (Merck Millipore, Darmstadt, Germany).[15]
(§4) Electrophoresis was resolved in 4–20% sodium dodecyl sulfate polyacrylamide gels (Biorad, Hercules, CA), containing 15 μg of cytosolic protein from each sample. […] Immunoreactive bands were detected with Supersignal West Pico Luminiscent Substrate and Supersignal West Femto Maximum Sensitivity Substrate. […]

[5] = biological target: human CypD (Homo sapiens, UniProt P30405); experiment: Surface plasmon resonance binding to immobilized CypD; settings: for selectivity between CypD and CypA (KD values): CypD versus CypA; for kon: read-out: ka, CypD
human CypD, sequence (P30405 30-207): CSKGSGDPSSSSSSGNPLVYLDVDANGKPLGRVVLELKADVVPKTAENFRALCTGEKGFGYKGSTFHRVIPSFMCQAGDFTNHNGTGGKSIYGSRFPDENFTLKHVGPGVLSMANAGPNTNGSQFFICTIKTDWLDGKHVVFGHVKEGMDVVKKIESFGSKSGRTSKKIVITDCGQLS
Procedure: With this objective, surface plasmon resonance (SPR) experiments were performed. CypD was immobilized in the sensor surface as a ligand, and 1–5 were injected as analytes. […] For immobilization, amine groups were activated with 1-ethyl-3-(3-dimethylaminopropyl)carbodiimide hydrochloride (EDC) and N-hydroxysuccinimide (NHS) and 50 μg/mL of human CypD dissolved in 5 mM sodium acetate (pH 4.5) was added. […] All of the assays were carried out with phosphate-buffered saline (PBS)—0.05% Tween (pH 7.2) as the running buffer, with a flow rate of 20 μL/min at 24 °C.
The left panels present association curves obtained by the addition of compounds over immobilized CypD and subtraction of their respective solvent control. The right panels show fitting curves for equilibrium binding. Representative graphs of one independent replicate. […] All injections were performed using PBS, 0.05% Tween (pH 7.2) as the running buffer. Kinetic equilibrium dissociation constants (KD) and fitting curves were obtained with TraceDrawer software.
(§5) SPR measurements were performed using the MP-SPR Navi 210A VASA instrument with SPR Navi Control software (BioNavis, Tampere, Finland). All of the analyses were carried out in three-dimensional (3D) carboxymethyl dextran hydrogel-coated (CMD-3DM) sensors (BioNavis). PBS, 0.05% Tween (pH 7.2) was used as the running buffer for sensor activation, protein immobilization, and analyte injection. All buffers were degassed and filtered by 0.22 μm before use. The flow rate and temperature were set at 20 μL/min and 24 °C, respectively. A commercial Amine Coupling Kit (Xantec bioanalytics GmbH, Düsseldorf, Germany) was used for sensor activation and Cyps immobilization. The chip surface was preconditioned with 2 M NaCl and 0.01 M NaOH. Then, the surface was activated by the addition of 0.2 M 1-ethyl-3-(3-dimethylaminopropyl)carbodiimide hydrochloride (EDC) and 0.05 M N-hydroxysuccinimide (NHS). After activation, 50 μg/mL of CypA or CypD dissolved in 5 mM sodium acetate buffer (pH 4.5) were injected for immobilization on the sensor surface. […] Compound injections were performed in serial mode, and the reference channel signal was subtracted from the analyte sensorgram. Data were processed with MP-SPR Navi Data Viewer (BioNavis), and KD values were obtained using the 1:1 Langmuir model with mass transport considerations of TraceDrawer software (RidgeView Instruments Ab, Uppsala, Sweden). All of the experiments were performed three independent times.

[6] = biological target: Human CypA (Homo sapiens, UniProt P62937); experiment: Surface plasmon resonance binding to immobilized CypA; settings: for Kd: CypA, SPR, 1:1 Langmuir model, PBS-T pH 7.2, 24 °C; for kon: read-out: ka, CypA
Human CypA, sequence (P62937 whole entry): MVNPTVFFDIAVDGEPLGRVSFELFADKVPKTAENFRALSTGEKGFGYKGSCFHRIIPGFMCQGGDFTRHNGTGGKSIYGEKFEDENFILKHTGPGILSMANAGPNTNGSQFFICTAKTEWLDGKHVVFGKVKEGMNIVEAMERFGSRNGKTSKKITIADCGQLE
Procedure: The protein was immobilized on the sensor surface by amino coupling, as described above (Figure S7), and compounds at several concentrations were added. The same conditions set for CypD were used for CypA experiments, with a flow rate of 20 μL/min and PBS-T (pH 7.2) as the running buffer.
Figure 9 Binding of compounds to CypA measured by surface plasmon resonance. The left panels present association curves obtained by the addition of compounds over immobilized CypA and subtraction of their respective vehicle signal. The right panels show fitting curves for equilibrium binding. Representative graphs of one independent replicate. […] Kinetic equilibrium dissociation constants (KD) and fitting curves were obtained with TraceDrawer software.
as §5

[7] = system: CypB; settings: compound alone 0.001 μM, 6 h; % of untreated control cells
Procedure: Before starting the experiments, antibody specificity was determined due to the conserved structures along Cyps. […] Human neuroblastoma cells were treated with compounds at 0.001 μM for 6 h, and Cyps expression was determined by Western blot (Figure 10).
SH-SY5Y cells were treated with 1–5 at 0.001 μM for 6 h, and their effects on Cyps expression were determined by Western blot. […] Protein band expression was normalized by actin levels. Results expressed as the percentage of untreated control cells or as the percentage of H2O2 control. Mean ± SEM of three replicates carried out in duplicate. Statistical differences determined by one-way ANOVA and Dunnett’s tests. ^#p < 0.05 and ^##p < 0.01 compared to control cells. *p < 0.05, **p < 0.01, and ***p < 0.01 compared to cells treated with H2O2 alone.
SH-SY5Y cells were cultured in 12-well plates at 1 × 10^6 cells per well and allowed to settle down for 24 h. Then, cells were treated with compounds at 0.001 μM for 6 h and oxidative damage was induced with 150 μM H2O2.
Cells were washed twice with ice-cold PBS, and a hypotonic solution was added (20 mM tris–HCl pH 7.4, 10 mM NaCl, and 3 mM MgCl2, containing phosphatase and protease inhibitor cocktail). […] The supernatant was collected as the cytosolic fraction, and protein concentration was quantified with the Direct Detect instrument (Merck Millipore, Darmstadt, Germany).[15] […]

[8] = system: human cancer cell lines; parameters: method as in PMID 31315183; settings: previous studies; cited from earlier work
[9] = parameters: method as in doi:10.1246/cl.1987.1687; settings: previous studies; cited from earlier work
[10] = system: mitochondrial permeability transition pore (mPTP); experiment: mPTP opening, calcein-AM/CoCl2 flow cytometry; settings: 0.001 μM, 15 min pretreatment, TBHP 3 min
Procedure: SH-SY5Y cells were treated for 15 min with 1–5, and 1 mM tert-butyl hydroperoxide (TBHP) was used to open the pore. Cells were loaded with calcein-AM, which accumulates in cytosol and cell compartments and with CoCl2 that quenches cytosolic fluorescence but not the mitochondrial signal.[17] Then, fluorescence was analyzed by flow cytometry (Figure 6a). […] (a) Analysis of mPTP opening. Cells were treated with compounds at 0.001 μM for 15 min, and pore opening was induced with 1 mM TBHP. Calcein-AM and CoCl2 were used to measure mPTP aperture by flow cytometry. […] Values are presented as the percentage of control cells. Data are mean ± SEM of three independent experiments. Statistical differences determined by one-way ANOVA and Dunnett’s tests. ^###p < 0.001 compared to control cells. *p < 0.05 and **p < 0.01 compared to cells treated only with TBHP.
The inhibition of mPTP by compounds was determined with the MitoProbe Transition Pore Assay Kit, as previously described.[21] For this assay, cells were seeded in 12-well plates at 5 × 10^5 cells per well and allowed to grow for 24 h. Then, SH-SY5Y cells were detached with Detachin solution (Genlatis, San Diego), washed with PBS, and resuspended in PBS buffer with 0.6 mM CaCl2. Cells were loaded with 0.01 μM calcein-AM and incubated at 37 °C for 15 min. Then, 0.4 mM CoCl2 and compounds at 0.001 μM were added and cells were incubated for 15 min at 37 °C. After this incubation, cells were centrifuged, resuspended in 100 μL of calcium-free PBS, and kept on ice. Finally, TBHP at 1 mM was added for 3 min to the cells to induce the pore opening. […] The fluorescence of 10 000 events was analyzed with IDEAS Application vs 6.0 (Amnis Corporation, Luminex Corp).

[11] = system: SH-SY5Y cells; experiment: Cell viability in H2O2 oxidative stress model, MTT assay; format: cell-based, human; settings: 150 μM H2O2, 6 h; 0.001-1 μM
Procedure: First, the capacity of 1–5 to improve cell survival under oxidative stress conditions was determined with the MTT assay (Figure 2). […] When cells were injured with the oxidant specie, a decrease in the cell viability of 23.6 ± 3.5% (p < 0.05) was observed.
Figure 2 Effect of compounds on the cell viability of SH-SY5Y cells. Compounds were added to human neuroblastoma cells for 6 h with and without 150 μM H2O2, and cell viability was evaluated with the MTT assay. Results of (a) compound 1, (b) compound 2, (c) compound 3, (d) compound 4, and (e) compound 5. Vitamin E (Vit E) at 25 μM was used as a positive control in oxidative stress assays. Mean ± standard error of the mean (SEM) of three experiments performed in triplicate. Data expressed as the percentage of control cells, compared by one-way analysis of variance (ANOVA) and Dunnett’s tests. ^#p < 0.05 compared to untreated control cells. *p < 0.05 and **p < 0.01 compared to cells treated with H2O2 alone. […]
The ability of compounds to protect cell viability from H2O2 was evaluated with 3-(4,5-dimethylthiazol-2-yl)-2,5-diphenyltetrazolium bromide (MTT) test. […] The absorbance of formazan crystals was measured at 595 nm with a plate reader. Saponin at 40 mg/mL was used as the death control, and its absorbance value was subtracted from the other data.

[12] = system: SH-SY5Y cells; experiment: Mitochondrial membrane potential (ΔΨm), TMRM dye; format: cell-based, human; settings: 150 μM H2O2, 6 h; compound 0.001 μM; percentage of control cells
Procedure: Since mitochondria are key players in neurodegeneration, acting as main producers and targets of ROS,[16] mitochondrial function was determined by analyzing the mitochondrial membrane potential (ΔΨm) with the fluorescent dye tetramethylrhodamine methyl ester (TMRM).
Figure 3 Effect of furanoditerpenes on ΔΨm of human neuroblastoma cells. Cells were treated for 6 h with S. tubulifera metabolites with and without 150 μM H2O2, and ΔΨm was determined with the TMRM dye. (a) Compound 1, (b) compound 2, (c) compound 3, (d) compound 4, and (e) compound 5 effects. Vitamin E (Vit E) at 25 μM was used as a positive control in oxidative stress assays. Data expressed as the percentage of control cells. Mean ± SEM of three experiments performed in triplicate. Statistical differences determined by one-way ANOVA and Dunnett’s tests. ^#p < 0.05 compared to untreated control cells. *p < 0.05, **p < 0.01, and ***p < 0.01 compared to cells treated with H2O2 alone.
To determine the neuroprotective effects of compounds, SH-SY5Y cells were seeded in 384-well plates at a density of 2.5 × 10^4 cells per well. After 24 h, cells were treated with the metabolites at nontoxic concentrations (0.001–1 μM) and 150 μM H2O2 for 6 h. […]
The effects of compounds in ΔΨm were analyzed with the fluorescent dye TMRM. […] The fluorescence was read in a plate reader at 535 nm excitation and 590 nm emission. […]

[13] = system: CypA; experiment: CypA expression by Western blot; settings: 0.001 μM, 6 h; physiological and oxidative stress (150 μM H2O2) conditions
Procedure: as §2, §3, §4

CC1(C)C(=O)C(O)=C[C@]2(C)[C@H]3CCc4cocc4[C@]3(C)CC[C@@H]12 [Compound 2]
ROS levels ([1]; 150 μM H2O2, 6 h, compound 0.1 μM, percentage of untreated control cells): 89.9 ± 5.7% | effect on ROS content ([1]; at 0.001, 0.1 and 1 μM): reduced the levels | effect on GSH content ([2]; cotreated with 150 μM H2O2, 6 h, at 0.001 and 1 μM): increase | CypD expression under oxidative damage [3]: 37.9 ± 17.9% | CypC expression under oxidative injury [4]: 24.3 ± 2.9% | Kd [5]: 2.53 ± 0.006 µM | selectivity between CypD and CypA (KD values) ([5]; SPR): selectivity toward the mitochondrial isoform | kon [5]: 10000 M⁻¹ s⁻¹ | Kd [6]: 14.7 ± 1.08 µM | kon [6]: 1320 M⁻¹ s⁻¹

C[C@]12CC(=O)[C@H](O)[C@](C)(CO)[C@@H]1CC[C@@]1(C)c3cocc3CC[C@H]21 [Compound 4, epispongiadiol]
CypB expression [7]: 48.54 ± 11.4% | cytotoxicity [8]: weak cytotoxicity | antiviral activity [9]: antiviral activity | CypD expression under oxidative damage [3]: about 54% | inhibition of mPTP opening after oxidative injury [10]: able to inhibit mPTP opening | Kd [5]: 30.4 ± 0.87 µM | kon [5]: 738 M⁻¹ s⁻¹ | Kd [6]: 27.4 ± 3.68 µM | kon [6]: 861 M⁻¹ s⁻¹

CC1(C)[C@@H](O)C(=O)C[C@]2(C)[C@H]3CCc4cocc4[C@]3(C)CC[C@@H]12 [Compound 1]
protection of cell viability from H2O2 damage [11]: not able to protect | ΔΨm [12]: 96.7 ± 5.4% | effect on ROS content ([1]; all four concentrations 0.001-1 μM): significant decrease | effect on GSH content ([2]; compound alone and with 150 μM H2O2, 6 h): did not affected the GSH content | cytotoxicity [8]: weak cytotoxicity | CypD expression under oxidative damage [3]: about 54% | effect on CypA expression [13]: decreased its expression | KD (kinetic equilibrium dissociation constant), CypD ([5]; SPR, 1:1 Langmuir model, PBS-0.05% Tween pH 7.2, 24 °C): No binding | selectivity between CypD and CypA (KD values) ([5]; SPR): selective toward CypA | ka, CypD ([5]; SPR, Table S1): No binding | kd, CypD ([5]; SPR, Table S1): No binding | binding to CypD ([5]; SPR, up to 50 μM): No binding | Kd [6]: 15.2 ± 1.31 µM | SPR signal, CypA ([6]; at 50 μM): 9.9 mdeg | kon [6]: 682 M⁻¹ s⁻¹
